The values that follow come from US20250213545A1 (AJOU UNIVERSITY INDUSTRY-ACADEMIC COOPERATION FOUNDATION, priority 2022, published 2025).

One experiment relates to α-synuclein aggregates. Put plainly: BiFC-α-syn Venus fluorescence in C. elegans Parkinson's disease model. It counts as in vivo. The following applies: Venus-αS C. elegans; fexofenadine, 2 days at 20° C.; vs control not treated. An excerpt:
(§1) For this purpose, A C. elegans Parkinson's disease model (Venus-αS) expressing BiFC-α-syn was produced by introducing plasmids that overexpress VN-linked α-synuclein in muscle cells of the pharynx and VC-linked α-synuclein in neurons that form synapses with muscle cells into wild-type Bristol N2 C. elegans purchased from the Caenorhabditis Genetics Center (CGC, University of Minnesota, St. Paul, MN) (Kim D-K et al., (2016). Autophagy. 12(10):1849-1863).

For experiment [1], the system named is Parkinson's disease model (6-OHDA model) mice. Put plainly: Bridge test (acrossing time on a 1 m bar). It counts as in vivo, C57BL/6 mice. The following applies: 20 mg/kg orally once a day. How it is done: (§2) Specifically, 8-week-old C57BL/6 mice (Daehan Biolink, Eumseong, North Chungcheong Province, Korea) were anesthetized by intraperitoneal (i.p.) injection of 200 mg/kg of 2,2,2-tribromoethanol (Sigma-Aldrich), and they were placed in a stereotaxic apparatus (David Kopf Instruments, Tujunga, CA, USA) equipped With a mouse adapter. Using a Hamilton syringe (Hamilton, Bonaduz, Switzerland), 2 μL of 6-OHDA-HCl solution (2 mg/mL) (Sigma Aldrich) in 0.02% ascorbic acid was injected into the right striatum at the following stereotactic coordinates (mm from the bregma): IP+1.0; ML-1.8; DV −3.2. The skin was sutured, and the animal was removed from the stereotaxic apparatus and placed on a heating pad for 30 minutes. Normal control mice for the diseased mouse model were injected with a vehicle (0.02% ascorbic acid) instead of 6-OHDA-HCl solution.
(§3) Behavioral experiments were performed 18 days after 6-01-IDA injection, and mice were sacrificed 21 days after 6-01-IDA injection, and histological analysis was performed.
In order to test the animal model's sense of balance, a bridge test was performed to measure the time it took to pass from one side to the other side on a 1 m long bar (acrossing time).

Another experiment concerns TH-positive neurons. The note with it: 6-OHDA+fexofenadine group; 20 mg/kg orally once a day; 21 days after 6-OHDA injection. As to the method:
as §2, §3

The test system of experiment [2] is BIFC-α-syn C. elegans Parkinson's disease model. As to the kind of experiment: Life-span analysis. It counts as in vivo.
Excerpt: as §1
For this purpose, eggs laid by adults were grown to the L4 larval stage on NGM plates inoculated with K col. OP50 (CGC) at 20° C. When the L4 stage was reached, they were transferred to NGM plates including […] 5-fluoro-2′-deoxyuridine (Sigma-Aldrich, F0503) to prevent progeny production. The number of living and dead C. elegans was recorded every 1 or 2 days. Worms that burst, were buried or crawled out of the plate were also counted. Survival data were analyzed using OASIS2 (Survival Analysis Online Application for Lifespan Analysis http://sbi.postech.ac.kr/oasis/surv/).

The subject of another experiment is Iba-1 positive microglia. Put plainly: Microglial (Iba-1) staining in substantia nigra and striatum, 6-OHDA model. It is filed as in vivo, C57BL/6 mice. The following applies: 6-OHDA+fexofenadine group; 20 mg/kg orally once a day; 21 days after 6-OHDA injection. How it is done:
Specifically, 8-week-old C57BL/6 mice (Daehan Biolink, Eumseong, North Chungcheong Province, Korea) were anesthetized by intraperitoneal (i.p.) injection of 200 mg/kg of 2,2,2-tribromoethanol (Sigma-Aldrich), and they were placed in a stereotaxic apparatus (David Kopf Instruments, Tujunga, CA, USA) equipped With a mouse adapter.
Activated microglia were analyzed through staining with anti-Iba-1 antibody (Wako, 019-19741, 1:1,000 dilution). The brain tissue preparation and tissue staining method for this purpose were performed in the same manner as the TH staining method in Example 3-1, and the images were analyzed using an Axio scan. Z1 slide scanner (Carl Zeiss, Germany). The cell number was measured and analyzed as the average value of three sheets of each tissue.

The subject of experiment [3] is BIFC-α-syn C. elegans Parkinson's disease model. As to the kind of experiment: Pharyngeal pumping analysis. It is filed as in vivo.
Excerpt: as §1

In another experiment the test system is GFAP. As to the kind of experiment: GFAP staining in cortex, striatum and substantia nigra, α-synuclein injection model. It counts as in vivo, C57BL/6 mice. The following applies: PFF-fexofenadine group vs PFF-PBS; 20 mg/kg orally once a day; day 30. How it is done: The skin was sutured, and the animal was removed from the stereotaxic apparatus and placed on a heating pad for 30 minutes.

Experiment [4] relates to Parkinson's disease model (6-OHDA model) mice. As to the kind of experiment: Cylinder test. The following applies: 6-OHDA+fexofenadine group; 20 mg/kg orally once a day. It is filed as in vivo, C57BL/6 mice. As to the method: as §2, §3
Experiment [5] shares this test system. As to the kind of experiment: Pole test (landing time). It is filed as in vivo, C57BL/6 mice. The note with it: 20 mg/kg orally once a day. How it is done:
as §2, §3
The mouse was placed on a bar with a diameter of 8 mm and a length of 55 cm, and a pole test was performed to measure the time it took for the mouse's four feet to come down to the floor (landing time).

Setting [6] is: 6-OHDA+fexofenadine group, 18 days after 6-OHDA injection.
Where [7] appears, read: normal mice (PBS-fexofenadine group).
[8] abbreviates: C. elegans wild-type N2 treated with fexofenadine.

As for `CC(C)(C(=O)O)c1ccc(C(O)CCCN2CCC(C(O)(c3ccccc3)c3ccccc3)CC2)cc1` (stereo not shown) [fexofenadine], the Venus fluorescence intensity entry with α-synuclein aggregates is given as “significantly reduced”. Also, the values for the acrossing time result in experiment [1] (setting [6]) and in experiment [1] (setting [7]) were “restored to a level similar to that of the normal mouse control group” and “improved compared to the normal mouse control group”, respectively. In the experiment with TH-positive neurons, the “number of TH-positive neurons on the ipsilateral side of the substantia nigra” value is “recovered to a level similar to that of the normal mouse control group”. Further, the lifespan result in [2] (setting [8]) is on record as “further extended”; in [2] (fexofenadine-treated C. elegans Parkinson's disease model), “about 14 days”. Besides, the “number of Iba-1 positive microglia in the ipsilateral side of the striatum and substantia nigra” value with Iba-1 positive microglia is recorded as “reduced to a level similar to that of the normal mouse control group”. Besides, the pharyngeal pumping ability result in [3] (C. elegans Parkinson's disease model, 8 days after fexofenadine treatment) was “restored to a level similar to that of wild-type N2”; in [3] (setting [8]) it was “improves the pharyngeal pumping ability”. The “GFAP expression in the cortex, striatum and substantia nigra, ipsilateral and contralateral sides” value with GFAP is “significantly reduced”. Besides, the “motor ability (steps of forepaw opposite the damaged striatum vs undamaged)” value in experiment [4] was “restored to the level of the normal mouse control group”. For the same molecule, the landing time entry in experiment [5] (setting [6]) is recorded as “about 6 seconds”; in experiment [5] (setting [7]), “approximately 4.5 seconds”.
